Test results published in patent publication US12653191B2, “Active compound combinations” (Bayer Aktiengesellschaft, priority 2020, dated 2026).
“And” between values parts separate entries of the source, which are not always exact repeats. Equal values may be shown once. Read-outs that look alike come from different tables or passages of the source.

Key:
Format in all cases: cell-based
[1] = test system: Colletotrichum lindemuthianum; assay: in vitro-Test with fungal microorganisms, Method A (tables D1-D8); details: mixing partner alone
Method in brief: (§1)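 First, compound in methanol with alkylaryl-polyglycol-ether was dried down in the plate. Next, spore or mycelium suspension in potato dextrose broth was added and extinction read at 620 nm. After 3-5 days at 20° C, 85% RH, reading was repeated and efficacy scored against untreated wells.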

Diaporthe citri [2] = assay: in vitro-Test with fungal microorganisms, Method B (tables F12-F15)
Description: (§2) Example: In Vitro-Test with Fungal Microorganisms
(§3) Wells of 96-well microtiter plates are filled with 30 μl of a preparation of test compound or compound combination in methanol+emulsifier alkylaryl-polyglycol-ether. Thereafter, the solvent is evaporated in a hood. At the next step, 200 μl of liquid growth medium is given, that has been amended with an appropriate concentration of spores or mycelium suspension of the test fungus.
(§4) With the aid of a photometer, the extinction in all wells is measured at the wavelength of 600 nm.
(§5) The microtiter plates are incubated for 3 to 7 days at 20° C. and 85% relative humidity. After the incubation inhibition of growth is determined photometrically. Efficacy is calculated in relation to the untreated control, 0% efficacy means fungal growth as high as in untreated control while 100% efficacy means no fungal growth is measured.
(§6) The data in tables A1 to A12, B1 to B14, C1 to C10, D1 to D8, E1 to E8, F1 to F11, G1 to G4, H1 to H4 and I1 to I5 were collected according to Method A. The data in tables A13 to A22, B15 to B18, C11 to C20, E9 to E16, F12 to F15, G5 to G15, H5 to H8, I6 to I11 and J1 to J11 were collected according to Method B.

Diaporthe citri [3] = assay: in vitro-Test with fungal microorganisms, Method A (tables F1-F11)
Method in brief: as §1

Colletotrichum coccodes = assay: in vitro-Test with fungal microorganisms, Method B (tables J1-J11); details: for inhibition of growth at 0.08 ppm / inhibition of growth at 2 ppm / inhibition of growth at 0.4 ppm: Colletotrichum coccodes, read-out: Efficacy %
Method in brief: (§7)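 Cpd in MeOH + alkylaryl-polyglycol-ether, solvent evaporated; liquid medium + fungal spores/mycelium added; OD600 read; 3–7 d, 20° C., 85% RH; growth inhibition by photometry, % efficacy vs untreated ctrl.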

Fusarium culmorum = assay: in vitro-Test with fungal microorganisms, Method B (tables G5-G15); details: for inhibition of growth at 0.08 ppm / inhibition of growth at 0.4 ppm / inhibition of growth at 2 ppm: Fusarium culmorum, read-out: Efficacy
Method in brief: as §7

Cordana musae [4] = assay: in vitro-Test with fungal microorganisms, Method B (tables E9-E16); details: single active
Method in brief: as §7

Cercospora beticola = assay: in vitro-Test with fungal microorganisms, Method B (tables C11-C20)
Method in brief: as §7

Alternaria alternata = assay: in vitro-Test with fungal microorganisms, Method B (tables A13-A22)
Method in brief: as §7

Cordana musae [5] = assay: in vitro-Test with fungal microorganisms, Method A (tables E1-E8); details: single substance
Method in brief: as §1

Botrytis cinerea = assay: in vitro-Test with fungal microorganisms, Method B (tables B15-B18); details: Botrytis cinerea, read-out: Efficacy %
Method in brief: as §7

[6] = test system: Ustilago segetum var. avenae; assay: in vitro-Test with fungal microorganisms, Method B (tables I6-I11)
Method in brief: as §7

Parastagonospora nodorum = assay: in vitro-Test with fungal microorganisms, Method B (tables H5-H8); details: Parastagonospora nodorum, read-out: Efficacy
Description: as §2, §3, §4, §5, §6

[7] = single active compound at 20 ppm
[8] = single active compound at 100 ppm
[9] = single active compound, 100 ppm
[10] = single active compound at 0.08 ppm
[11] = single active compound at 2 ppm
[12] = Neocordana musae, read-out: Efficacy
[13] = Cercospora beticola, single compound, read-out: Efficacy %

N#Cc1ccccc1NC(=O)c1snc(Cl)c1Cl [(6.002) isotianil, isotianil]
Efficacy % ([1]; 0.8 ppm): 0%
Efficacy % ([1]; 4.0 ppm): 9%
Efficacy % ([1]; 20.0 ppm): 3%
Efficacy % ([1]; 100.0 ppm): 0%
Efficacy (Diaporthe citri [2]; Table F14, 0.8 ppm alone): 10%
Efficacy (Diaporthe citri [2]; Table F14, 4 ppm alone): 9%
Efficacy (Diaporthe citri [2]; Table F14, 20 ppm alone): 5%
Efficacy (Diaporthe citri [2]; Table F14, 100 ppm alone): 19%
Efficacy (Diaporthe citri [3]; Table F11, 0.8 ppm alone): 0%
Efficacy (Diaporthe citri [3]; Table F11, 4.0 ppm alone): 22%
Efficacy (Diaporthe citri [3]; Table F11, 20.0 ppm alone): 37%
Efficacy (Diaporthe citri [3]; Table F11, 100.0 ppm alone): 0%
Efficacy (Diaporthe citri [3]; applied alone, 0.8 ppm): 29%
Efficacy (Diaporthe citri [3]; applied alone, 4.0 ppm): 5%
Efficacy (Diaporthe citri [3]; applied alone, 20.0 ppm): 15%
Efficacy (Diaporthe citri [3]; applied alone, 100.0 ppm): 16%
Efficacy (Diaporthe citri [3]; single active, 0.8 ppm): 0%
Efficacy (Diaporthe citri [3]; single active, 4.0 ppm): 12%
Efficacy (Diaporthe citri [3]; single active, 20.0 ppm): 14%
Efficacy (Diaporthe citri [3]; single active, 100.0 ppm): 18%
Efficacy % (Colletotrichum coccodes; [7]): 0%
Efficacy % (Colletotrichum coccodes; [8]): 0%
Efficacy (Fusarium culmorum; single active compound, 0.8 ppm): 7%
Efficacy (Fusarium culmorum; single active compound, 4 ppm): 16%
Efficacy (Fusarium culmorum; single active compound, 20 ppm): 14%
Efficacy (Fusarium culmorum; [9]): 20%
Efficacy (Cordana musae [4]; 0.8 ppm): 9%
Efficacy (Cordana musae [4]; 4 ppm): 15% and 18%
Efficacy (Cordana musae [4]; 20 ppm): 10% and 18%
Efficacy (Cordana musae [4]; 100 ppm): 7%
Efficacy % (Cercospora beticola; 4 ppm): 8%
Efficacy % (Cercospora beticola; 20 ppm): 3%
Efficacy % (Cercospora beticola; single compound, 100 ppm): 0%
Efficacy (Alternaria alternata; 4 ppm): 0%
Efficacy (Alternaria alternata; 20 ppm): 0%
Efficacy (Alternaria alternata; 100 ppm): 15%
Efficacy (Alternaria alternata; single compound, 0.8 ppm): 0%
Efficacy (Alternaria alternata; single compound, 20 ppm): 11%
Efficacy % (Cordana musae [5]; 0.8 ppm): 9%
Efficacy % (Cordana musae [5]; 4.0 ppm): 6%
Efficacy % (Cordana musae [5]; 20.0 ppm): 0%

CO/N=C(/C1=NOCCO1)c1ccccc1Oc1ncnc(Oc2ccccc2Cl)c1F [(3.012) fluoxastrobin, fluoxastrobin]
Efficacy (Diaporthe citri [2]; Table F13, 0.4 ppm alone): 83%
Efficacy (Diaporthe citri [2]; Table F13, 2 ppm alone): 96%
inhibition of growth at 0.4 ppm (Botrytis cinerea; 0.4 ppm alone): 20%
inhibition of growth at 2 ppm (Botrytis cinerea; 2 ppm alone): 31%
inhibition of growth at 0.08 ppm (Colletotrichum coccodes; 0.08 ppm): 41%
inhibition of growth at 0.08 ppm (Colletotrichum coccodes; [10]): 0%
inhibition of growth at 2 ppm (Colletotrichum coccodes; [11]): 0%
inhibition of growth at 0.08 ppm (Fusarium culmorum; alone): 19%
inhibition of growth at 0.08 ppm (Fusarium culmorum; single active compound): 27%
inhibition of growth at 0.4 ppm (Fusarium culmorum; single active compound): 47%
inhibition of growth at 2 ppm (Fusarium culmorum; single active compound): 37%
inhibition of growth at 0.08 ppm (Cordana musae [4]; [12]): 3%
inhibition of growth at 0.4 ppm (Cercospora beticola; Cercospora beticola, read-out: Efficacy %): 100%
inhibition of growth at 0.08 ppm (Cercospora beticola; [13]): 96%
inhibition of growth at 0.4 ppm (Cercospora beticola; [13]): 100%
inhibition of growth at 0.08 ppm ([6]; read-out: Efficacy %): 18%
inhibition of growth at 0.4 ppm ([6]; 0.4 ppm, read-out: Efficacy %): 51%
inhibition of growth at 0.08 ppm ([6]; alone, read-out: Efficacy %): 16%
inhibition of growth at 4 ppm (Alternaria alternata; Alternaria alternata, 4 ppm, read-out: Efficacy): 68%
inhibition of growth at 20 ppm (Alternaria alternata; Alternaria alternata, 20 ppm, read-out: Efficacy): 92%
inhibition of growth at 0.4 ppm (Alternaria alternata; Alternaria alternata, single compound, 0.4 ppm, read-out: Efficacy): 70%

CCO[PH](=O)[O-].CCO[PH](=O)[O-].CCO[PH](=O)[O-].[Al+3] [(15.012) fosetylal]
Efficacy (Diaporthe citri [2]; Table F12, 0.8 ppm alone): 13%
Efficacy (Diaporthe citri [2]; Table F12, 4 ppm alone): 7%
Efficacy % (Colletotrichum coccodes; 0.8 ppm): 0%
Efficacy % (Colletotrichum coccodes; 4 ppm): 0%
Efficacy % (Colletotrichum coccodes; 20 ppm): 0%
Efficacy % (Colletotrichum coccodes; single active compound at 0.8 ppm): 27%
Efficacy % (Colletotrichum coccodes; single active compound at 4 ppm): 0%
Efficacy % (Colletotrichum coccodes; [7]): 2%
Efficacy % (Colletotrichum coccodes; [8]): 15%
Efficacy (Fusarium culmorum; single active compound, 4 ppm): 5%
Efficacy (Fusarium culmorum; single active compound, 20 ppm): 11%
Efficacy (Fusarium culmorum; [9]): 30%
Efficacy % ([6]; 0.8 ppm): 2%
Efficacy % ([6]; 20 ppm): 0%

CCN(C)C=Nc1cc(C)c(Oc2cccc(SC(F)(F)C(F)F)c2)cc1C [(1.067), N′-(2,5-dimethyl-4-{3-[(1,1,2,2-tetrafluoro-ethyl)sulfanyl]-phenoxy}phenyl)-N-ethyl-N-methyl-imidoformamide]
inhibition of growth at 0.4 ppm (Colletotrichum coccodes; 0.4 ppm): 0%
inhibition of growth at 2 ppm (Colletotrichum coccodes; 2 ppm): 99%
inhibition of growth at 0.08 ppm (Colletotrichum coccodes; [10]): 1%
inhibition of growth at 0.4 ppm (Colletotrichum coccodes; single active compound at 0.4 ppm): 12%
inhibition of growth at 2 ppm (Colletotrichum coccodes; [11]): 97%
inhibition of growth at 0.08 ppm (Fusarium culmorum; alone): 30%
inhibition of growth at 0.4 ppm (Fusarium culmorum; alone): 26%
inhibition of growth at 2 ppm (Fusarium culmorum; alone): 99%
inhibition of growth at 0.08 ppm (Fusarium culmorum; single active compound): 22%
inhibition of growth at 2 ppm (Fusarium culmorum; single active compound): 97%
inhibition of growth at 0.08 ppm (Parastagonospora nodorum; 0.08 ppm): 94%
inhibition of growth at 0.4 ppm (Parastagonospora nodorum; 0.4 ppm): 100%
inhibition of growth at 0.08 ppm (Cordana musae [4]; [12]): 0%
inhibition of growth at 0.4 ppm (Cordana musae [4]; Neocordana musae, 0.4 ppm, read-out: Efficacy): 14%
inhibition of growth at 2 ppm (Cordana musae [4]; Neocordana musae, 2 ppm, read-out: Efficacy): 100%
inhibition of growth at 0.08 ppm (Cercospora beticola; [13]): 0%
inhibition of growth at 0.4 ppm (Cercospora beticola; [13]): 68%
inhibition of growth at 2 ppm (Cercospora beticola; Cercospora beticola, single compound, 2 ppm, read-out: Efficacy %): 100%
inhibition of growth at 0.08 ppm ([6]; alone, read-out: Efficacy %): 100%
inhibition of growth at 2 ppm (Alternaria alternata; Alternaria alternata, 2 ppm, read-out: Efficacy): 74%
